Laboratory results published in patent US20250262198A1, “METHOD FOR TREATING MULTIPLE SCLEROSIS” (BEIJING INNOCARE PHARMA TECH CO., LTD., priority 2022, published 2025).

Tests used:
[1] = tested on: MOG35-55-induced EAE mouse model; assay: MOG35-55-induced EAE mouse model of multiple sclerosis, oral orelabrutinib; type: in vivo, C57BL/6 mouse
Description: Multiple sclerosis (MS) is a chronic neuroinflammatory demyelinating disorder of the central nervous system (CNS). EAE (Experimental Autoimmune Encephalomyelitis) is the most common animal model of human MS as it is especially useful to investigate neuroinflammatory pathways. The synthesized peptide MOG35-55-induced EA E mouse model was used to evaluate the therapeutic potential of orelabrutinib. 100 μL emulsion consisted of 0.75 mg/ml MOG35-55 and 4 mg/mL CFA were injected subcutaneously into two different sites on each hind flank of each C57BL/6 mouse. 300 ng of pertussis toxin in 100 μL of PBS were injected intraperitoneally at the day of immunization and two days later. Mice were randomized into 2 groups as follows: vehicle and orelabrutinib 30 mg/kg/day. Each group had 10 animals. On the day of immunization, animals were dosed QD by PO gavage with either vehicle or test compound for 21 days.

[2] = tested on: patients with relapsing-remitting multiple sclerosis (RRMS); assay: Randomized, double-blind, placebo-controlled phase 2 study of orelabrutinib in RRMS patients (Core part); type: in vivo, human; details: for percent reduction of cumulative number of new Gd+T1 brain lesions relative to placebo: ITT population; for Adjusted mean cumulative number of new Gd+T1 lesions from W 4 to W 24 / Adjusted mean cumulative number of new Gd+T1 lesions at Week 12 / % Reduction of cumulative number of new Gd+T1 lesions from Week 4 to Week 24 vs placebo/50 mg QD switch arm / % Reduction of cumulative number of new Gd+T1 brain lesions vs placebo / Annualized relapse rate (ARR): PHS population; for Adjusted mean cumulative number of new Gd+T1 lesions at Week 12: placebo 4.34
Description: This is a randomized, double-blind, placebo-controlled, phase 2 study of orelabrutinib in patients with relapsing-remitting multiple sclerosis (RRMS) that consists of 2 parts: a Core part and an Open-label Extension (OLE) part. The Core part is completed, and the OLE part is on-going.
The completed Core part consisted of a 4-week screening period and 24-week treatment period. Patients with RRMS were randomly assigned to 1 of 4 treatment groups in a 1:1:1:1 ratio: placebo, orelabrutinib 50 mg once daily (QD), orelabrutinib 50 mg twice daily (BID), or orelabrutinib 80 mg QD. At Week 13, patients in the placebo cohort were switched to orelabrutinib 50 mg QD.
Patients with RRMS were randomly assigned to 1 of 4 treatment groups: placebo, orelabrutinib (50 mg, once daily [QD]), orelabrutinib (80 mg QD) and orelabrutinib (50 mg, twice daily [BID]) at a 1:1:1:1 ratio. • Cohort 1: Placebo (Week 1-12)/orelabrutinib 50 mg QD (Week 13-24) • Cohort 2: Orelabrutinib 50 mg QD (Week 1-24) • Cohort 3: Orelabrutinib 80 mg QD (Week 1-24) • Cohort 4: Orelabrutinib 50 mg BID (Week 1-24)
At week 12 of the treatment period, subjects in Cohort 1 were switched to orelabrutinib at a starting daily dose of 50 mg. A separate open-label extension (OLE) study was developed to allow continued dosing, provided that safety and tolerability were acceptable.
Placebo or orelabrutinib was orally administered daily starting on Day 1 of the treatment period. Subjects returned to study site on Day 8 and every 4 weeks starting from Day 1 for trial visits and were assessed for safety and efficacy.
• Intent-to treat (ITT) population. 158 patients randomized: 40 in placebo, 37 in 50 mg QD cohort, 41 in 50 mg BID cohort, and 40 in 80 mg QD cohort. • 3 force majeure events during the study caused missing MRI data at Week 4, 8, or 12 timepoints: Ukraine war & crisis, COVID-19 pandemic outbreak, and FDA's partial clinical hold. • Post-hoc analysis set (PHS) population. 115 patients remaining after excluding patients who missed any one of the 3 MRI data points within first 12 weeks: 27 in placebo, 30 in 50 mg QD, 29 in 50 mg BID, and 29 in 80 mg QD. • 132 patients completed 12 weeks of treatment and 127 patients completed 24 weeks of treatment.
(PHS Population, N=115) The adjusted mean cumulative number, percent reduction (orelabrutinib vs placebo) associated with p-value are estimated from a Poisson regression model with a Pearson scale parameter with a log link function and offset by log number of scans as of Week 12. Baseline number of Gd+T1 brain lesions is included in the model as a continuous covariate.
The adjusted mean cumulative numbers are estimated from Poisson regression models with a Pearson scale parameter with a log link function and offset by log number of scans as of that visit. Baseline number of Gd+T1 brain lesions is included in the model as a continuous covariate.

Compound: C=CC(=O)N1CCC(c2ccc(C(N)=O)c(-c3ccc(Oc4ccccc4)cc3)n2)CC1 [orelabrutinib, 2-(4-phenoxyphenyl)-6-[1-(prop-2-enoyl)piperidin-4-yl]pyridine-3-carboxamide]
- average clinical score (EAE) ([1]; 30 mg/kg/day PO QD, day 15 post-immunization, vehicle 2.0): 0.9
- average clinical score (EAE) ([1]; 30 mg/kg/day PO QD, day 21, p<0.05, vehicle 1.5): 0.6
- body weight loss associated with EAE ([1]; 30 mg/kg/day PO QD, vs vehicle): reduced weight loss
- reduction of EAE score ([1]; 30 mg/kg/day oral): 50%
- EAE severity ([1]; 30 mg/kg/day oral, vs vehicle): markedly ameliorated EAE severity
- percent reduction of cumulative number of new Gd+T1 brain lesions relative to placebo ([2]; Week 12, 50 mg BID): 78.8%
- percent reduction of cumulative number of new Gd+T1 brain lesions relative to placebo ([2]; Week 12, 50 mg QD): 73.3%
- percent reduction of cumulative number of new Gd+T1 brain lesions relative to placebo ([2]; Week 12, 80 mg QD): 80.5%
- Adjusted mean cumulative number of new Gd+T1 lesions from W 4 to W 24 ([2]; 50 mg BID (N=29)): 1.08
- Adjusted mean cumulative number of new Gd+T1 lesions at Week 12 ([2]; 50 mg BID (N=29)): 0.82
- % Reduction of cumulative number of new Gd+T1 lesions from Week 4 to Week 24 vs placebo/50 mg QD switch arm ([2]; 50 mg BID, P 0.0114): 83.3%
- Adjusted mean cumulative number of new Gd+T1 lesions from W 4 to W 24 ([2]; 50 mg QD (N=30)): 2.10
- Adjusted mean cumulative number of new Gd+T1 lesions at Week 12 ([2]; 50 mg QD (N=30)): 1.14
- % Reduction of cumulative number of new Gd+T1 lesions from Week 4 to Week 24 vs placebo/50 mg QD switch arm ([2]; 50 mg QD, P 0.0958): 67.4%
- Adjusted mean cumulative number of new Gd+T1 lesions from W 4 to W 24 ([2]; 80 mg QD (N=29)): 0.50
- Adjusted mean cumulative number of new Gd+T1 lesions at Week 12 ([2]; 80 mg QD (N=29)): 0.42
- % Reduction of cumulative number of new Gd+T1 lesions from Week 4 to Week 24 vs placebo/50 mg QD switch arm ([2]; 80 mg QD, P 0.0037): 92.3%
- % Reduction of cumulative number of new Gd+T1 brain lesions vs placebo ([2]; Week 12, 50 mg BID (N=29), P 0.0073): 81.0%
- % Reduction of cumulative number of new Gd+T1 brain lesions vs placebo ([2]; Week 12, 50 mg QD (N=30), P 0.0278): 73.8%
- % Reduction of cumulative number of new Gd+T1 brain lesions vs placebo ([2]; Week 12, 80 mg QD (N=29), P 0.0018): 90.4%
- Annualized relapse rate (ARR) ([2]; Week 24, 50 mg BID): 0.12
- Annualized relapse rate (ARR) ([2]; Week 24, 50 mg QD): 0.05
- Annualized relapse rate (ARR) ([2]; Week 24, 80 mg QD): 0.06
- Annualized relapse rate (ARR) ([2]; Week 24, placebo/50 mg QD switch arm (placebo Week 1-12, orelabrutinib 50 mg QD Week 13-24)): 0.14
- Adjusted mean cumulative number of new Gd+T1 lesions from W 4 to W 24 ([2]; switch arm: placebo Week 1-12 / orelabrutinib 50 mg QD Week 13-24 (N=27)): 6.45
- Annualized relapse rate (ARR) compared to the placebo group ([2]; all orelabrutinib cohorts, Week 12, sustained through Week 24): reduced
- control of new T1 lesions ([2]; all orelabrutinib cohorts, after 4 weeks of treatment, effect sustained up to 24 weeks): Control of new T1 lesions was achieved
